These are literature values, as cited in US20110061649A1, “DEVICE AND METHOD FOR TREATING RESPIRATORY AND OTHER DISEASES” (priority 2007, published 2011).

In data set [1] the test system is alcohol dehydrogenases.
The subject of data set [2] is vancomycin-resistant enterococci. The settings on record: allicin formulated into creams and soap.
For data set [3], the system named is mammals cells.
For data set [4], the system named is cysteine proteinases.
The test system of data set [5] is methicillin-resistant staphylococcus aureus. Conditions: allicin formulated into creams and soap.
For data set [6] the following is noted: for storage without losing effectiveness / beneficial properties: Weizmann Institute article.

Entries after “also recorded” stand apart in the source; their conditions may differ. Where two headings read alike, the source gives them in different places.

In the case of `C=CCS[S+]([O-])CC=C` (centres unmarked) [allicin], the “blocking of alcohol dehydrogenases” value in data set [1] is reported as “blocking”. In data set [2], the “killing of vancomycin-resistant enterococci” value was “killing”. Also, the “level of allicin to which mammals cells proved to be immune” value in data set [3] is 50 Mm. The “blocking of cysteine proteinases” value in data set [4] is “blocking”; in data set [4] (listed as Allicin), “Strongly Inhibits”. In addition, in data set [5], the “killing of methicillin-resistant staphylococcus aureus” value is given as “killing”. In addition, the life span result in data set [6] (room temperature) is “less than an our; also recorded: about an hour”; in data set [6] (temperature not stated), “few hours”. Also, the “storage without losing effectiveness / beneficial properties” value in data set [6] (listed as natural compound) is “loses its beneficial properties within hours”. In addition, the preserved stable result in data set [6] (temperature of 4° Celsius) is recorded as “stable for months”.

`C=CCS[S+]([O-])CC=C` (centres unmarked) [pure semi-synthetic allicin, allicin]: the “storage without losing effectiveness / beneficial properties” value in data set [6] is given as “stored for months without losing its effectiveness”.
